In US20260007681A1, “INDOLE DERIVATIVES AS ESTROGEN RECEPTOR DEGRADERS” (REGENTS OF THE UNIVERSITY OF MICHIGAN, priority 2022, published 2026):
Where two headings read alike, the source gives them in different places.

Legend:
ER = ER (Homo sapiens (Human), UniProt P03372); assay: In-cell western blot analysis of relative ER percentage (Compounds B1-B278); assay type: cell-based; details: ER degradation, 16 hours, read-out: ICW DC50
Protocol: In-cell western blot analysis. Cells are seeded in multi-well plates (e.g., at 40,000 or 10,000 cells/well). Diluted compounds at certain concentration are added (final 0.5% DMSO) and cells are incubated for […] (e.g., 16 hours). Formaldehyde (e.g., PBS:FA=9:1) is added and followed by washing with PBS. The cells are blocked with Licor blocking buffer (Li-Cor). The relative ER percentage in treated cells are obtained by comparing the values of treated wells to those in untreated and DMSO-treated wells as 100%.
In-cell western blot analysis. a. seed cells in black-sided/clear bottom 96- or 384-well plates at 40,000 or 10,000 cells/well, overnight; b. add diluted compounds (final 0.5% DMSO), 16 hours. 16 h later, remove medium, add 100 μL or 25 μL of 3.7-4.0% formaldehyde (PBS:FA=9:1), RT 20 min, no shaking; c. wash with PBS, and permeabilized with 100 μL or 25 μL/well of 1×PBS+0.1% Triton X-100 10 minutes; d. block with 100 μL or 25 μL Licor blocking buffer (Li-Cor), RT 1 h, moderate shaking; d. Add 100 μL or 25 μL of anti-ER (cs-8644, 1:500-1,000)+GAPDH(Millipore MAB374, 1:1000) in Block+0.05% Tween 20. RT 2 h, gentle shaking. Negative control: cells plus secondary antibodies (no primary antibodies); e. wash×4 with PBS +0.05-0.1% Tween 20, gentel shaking; f. anti-rabbit-680 and anti-mouse-800 (both 1:1000 in LiCor block +0.05% Tween20, RT 1 h, gentle shaking, no light. LI-COR: 0.2% to reduce background; g. wash×4 with PBS+0.05% Tween 20, gental shaking; h. add 100 μL or 25 μL of PBS to each well and read on CLX plate reader. The relative ER percentage in treated cells were obtained by comparing the values of treated wells to those in untreated and DMSO-treated wells as 100%.

[1] = Cell growth assay (WST-8) (Compounds B1-B278); assay type: cell-based; details: T47D cell line, WST-8, 4 days, read-out: Cell Growth Inhibition in T47D cell line IC50
Protocol: Cell Growth Assay. The cells are seeded at certain concentration (e.g., at 1500/well) in multi-well plates overnight. Cells are subsequently treated with the compounds. A certain period of time (e.g., 4 days) after the compound treatment, 10% WST-8 reagent is added to the culture medium and incubate under certain condiction (e.g., in a CO2 incubator at 37° C. for 2.5 hours). The absorbance is measured on each sample using a microplate reader at certain wavelength (e.g., 450 nm). The relative absorbance is calculated against the vehicle control from three individually repeats.
Cell Growth Assay. The cells were seeded at 1500/well in 96 well plates overnight. One day after the seeding, they were treated with indicated doses of compounds respectively. 4 days after the compound treatment, 10% WST-8 reagent was added to the culture medium and incubate in a CO2 incubator at 37° C. for 2.5 hours. Before reading, the plate was mixed gently on an orbital shaker for one minute to ensure homogeneous distribution of color. The absorbance was measured of each sample using a microplate reader at a wavelength of 450 nm. The relative absorbance was calculated against the vehicle control from three individually repeats.

Sequence of ER (P03372 whole entry): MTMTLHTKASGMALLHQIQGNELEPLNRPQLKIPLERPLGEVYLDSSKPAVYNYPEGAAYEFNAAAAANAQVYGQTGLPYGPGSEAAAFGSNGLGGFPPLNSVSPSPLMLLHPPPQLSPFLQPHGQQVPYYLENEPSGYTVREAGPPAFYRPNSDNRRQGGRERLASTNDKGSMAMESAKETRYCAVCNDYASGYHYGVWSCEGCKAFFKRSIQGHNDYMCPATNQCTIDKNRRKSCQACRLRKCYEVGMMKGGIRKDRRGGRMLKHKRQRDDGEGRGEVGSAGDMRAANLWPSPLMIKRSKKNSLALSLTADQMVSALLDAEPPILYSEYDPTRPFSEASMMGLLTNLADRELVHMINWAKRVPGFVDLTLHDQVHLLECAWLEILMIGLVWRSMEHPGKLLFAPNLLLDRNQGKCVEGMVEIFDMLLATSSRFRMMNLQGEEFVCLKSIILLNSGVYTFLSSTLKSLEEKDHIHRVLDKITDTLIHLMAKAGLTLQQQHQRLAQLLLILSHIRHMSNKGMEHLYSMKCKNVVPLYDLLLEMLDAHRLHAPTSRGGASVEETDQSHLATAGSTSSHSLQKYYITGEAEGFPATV

Row | Structure (SMILES) | DC50 (ER) | IC50 ([1]; 96 h) | IC50 [1]
1 | C[C@@H]1Cc2c([nH]c3ccccc23)[C@@H](c2cnc(N3CCC(CN4CCN5c6ccc7c(c6OC[C@H]5C4)CN(C4CCC(=O)NC4=O)C7=O)CC3)nc2)N1CC(F)F (mixture of isomers) [Compound B255, 3-((RS)-7-((1-(5-((1R,3R)-2-(2,2-difluoroethyl)-3-methyl-2,3,4,9-tetrahydro-1H-pyrido[3,4-b]indol-1-yl)pyrimidin-2-yl)piperidin-4-yl)methyl)-1-oxo-1,3,5,5a,6,7,8,9-octahydro-2H-pyrazino[1′,2′:4,5][1,4]oxazino[2,3-e]isoindol-2-yl)piperidine-2,6-dione] | > 100 nM |  | < 1 nM
2 | C[C@@H]1Cc2c([nH]c3ccccc23)[C@@H](c2cnc(N3CCC(CN4CCN5c6ccc7c(c6OC[C@H]5C4)CN(C4CCC(=O)NC4=O)C7=O)CC3)nc2)N1CC(C)(C)F (mixture of isomers) [Compound B256, 3-((RS)-7-((1-(5-((1R,3R)-2-(2-fluoro-2-methylpropyl)-3-methyl-2,3,4,9-tetrahydro-1H-pyrido[3,4-b]indol-1-yl)pyrimidin-2-yl)piperidin-4-yl)methyl)-1-oxo-1,3,5,5a,6,7,8,9-octahydro-2H-pyrazino[1′,2′:4,5][1,4]oxazino[2,3-e]isoindol-2-yl)piperidine-2,6-dione] | > 100 nM | < 1 nM | 
3 | C[C@@H]1Cc2c([nH]c3ccccc23)[C@@H](c2c(F)cc(N3CCC(CN4CCN5c6ccc7c(c6OC[C@H]5C4)CN(C4CCC(=O)NC4=O)C7=O)CC3)cc2F)N1CC(C)(C)F (mixture of isomers) [Compound B257, 3-((RS)-7-((1-(3,5-difluoro-4-((1R,3R)-2-(2-fluoro-2-methylpropyl)-3-methyl-2,3,4,9-tetrahydro-1H-pyrido[3,4-b]indol-1-yl)phenyl)piperidin-4-yl)methyl)-1-oxo-1,3,5,5a,6,7,8,9-octahydro-2H-pyrazino[1′,2′:4,5][1,4]oxazino[2,3-e]isoindol-2-yl)piperidine-2,6-dione] | 10 to 100 nM | < 1 nM | 
4 | C[C@@H]1Cc2c([nH]c3ccccc23)[C@@H](c2cnc(N3CCC(OCCN4CCN5c6cc7c(cc6OC[C@@H]5C4)C(=O)N([C@H]4CCC(=O)NC4=O)C7)CC3)nc2)N1CC(F)F [Compound 1B24, (S)-3-((S)-3-(2-((1-(5-((1R,3R)-2-(2,2-difluoroethyl)-3-methyl-2,3,4,9-tetrahydro-1H-pyrido[3,4-b]indol-1-yl)pyrimidin-2-yl)piperidin-4-yl)oxy)ethyl)-8-oxo-1,2,3,4,4a,5,8,10-octahydro-9H-pyrazino[1,2′:4,5][1,4]oxazino[2,3-f]isoindol-9-yl)piperidine-2,6-dione] | 10 to 100 nM | 1 to 10 nM | 
5 | C[C@@H]1Cc2c([nH]c3ccccc23)[C@@H](c2cnc(N3CC4(CCC(CN5CCN6c7cc8c(cc7OC[C@@H]6C5)C(=O)N(C5CCC(=O)NC5=O)C8)CC4)C3)nc2)N1CC(F)F (stereo partly drawn) [Compound B120, 3-((S)-3-((2-(5-((1R,3R)-2-(2,2-difluoroethyl)-3-methyl-2,3,4,9-tetrahydro-1H-pyrido[3,4-b]indol-1-yl)pyrimidin-2-yl)-2-azaspiro[3.5]nonan-7-yl)methyl)-8-oxo-1,2,3,4,4a,5,8,10-octahydro-9H-pyrazino[1′,2′:4,5][1,4]oxazino[2,3-f]isoindol-9-yl)piperidine-2,6-dione] | 10 to 100 nM | 1 to 10 nM | 

Further lines, with some results ahead:

Row | DC50 (ER) | Structure (SMILES) | IC50 ([1]; 96 h) | IC50 [1]
6 | 10 to 100 nM | C[C@@H]1Cc2c([nH]c3ccccc23)[C@@H](c2cnc(N3CCC(CN4CCN5c6ccc7c(c6OC[C@H]5C4)CN(C4CCC(=O)NC4=O)C7=O)CC3)nc2)N1CC(F)F (mixture of isomers) [Compound B254, 3-((RS)-7-((1-(5-((1R,3R)-2-(2,2-difluoroethyl)-3-methyl-2,3,4,9-tetrahydro-1H-pyrido[3,4-b]indol-1-yl)pyrimidin-2-yl)piperidin-4-yl)methyl)-1-oxo-1,3,5,5a,6,7,8,9-octahydro-2H-pyrazino[1′,2′:4,5][1,4]oxazino[2,3-e]isoindol-2-yl)piperidine-2,6-dione] | < 1 nM | 
7 | > 100 nM | C[C@@H]1Cc2c([nH]c3ccccc23)[C@@H](c2c(F)cc(N3CCC(CN4CCN5c6ccc7c(c6OC[C@H]5C4)CN(C4CCC(=O)NC4=O)C7=O)CC3)cc2F)N1CC(C)(C)F (mixture of isomers) [Compound B259, 3-((RS)-7-((1-(3,5-difluoro-4-((1R,3R)-2-(2-fluoro-2-methylpropyl)-3-methyl-2,3,4,9-tetrahydro-1H-pyrido[3,4-b]indol-1-yl)phenyl)piperidin-4-yl)methyl)-1-oxo-1,3,5,5a,6,7,8,9-octahydro-2H-pyrazino[1′,2′:4,5][1,4]oxazino[2,3-e]isoindol-2-yl)piperidine-2,6-dione] |  | < 1 nM
8 | 10 to 100 nM | C[C@@H]1Cc2c([nH]c3ccccc23)[C@@H](c2c(F)cc(-c3ncc(C(=O)N4CCN5c6cc7c(cc6OC[C@@H]5C4)C(=O)N([C@H]4CCC(=O)NC4=O)C7)cn3)cc2F)N1CC(F)F [Compound B117, (S)-3-((S)-3-(2-(4-((1R,3R)-2-(2,2-difluoroethyl)-3-methyl-2,3,4,9-tetrahydro-1H-pyrido[3,4-b]indol-1-yl)-3,5-difluorophenyl)pyrimidine-5-carbonyl)-8-oxo-1,2,3,4,4a,5,8,10-octahydro-9H-pyrazino[1′,2′:4,5][1,4]oxazino[2,3-f]isoindol-9-yl)piperidine-2,6-dione] | 1 to 10 nM | 
9 | 10 to 100 nM | C[C@@H]1Cc2c([nH]c3ccccc23)[C@@H](c2c(F)cc(NC3CN(C(=O)CN4CCN5c6cc7c(cc6OC[C@@H]5C4)C(=O)N(C4CCC(=O)NC4=O)C7)C3)cc2F)N1CC(F)(F)CO (stereo partly drawn) [Compound B118, 3-((S)-3-(2-(3-((4-((1R,3R)-2-(2,2-difluoro-3-hydroxypropyl)-3-methyl-2,3,4,9-tetrahydro-1H-pyrido[3,4-b]indol-1-yl)-3,5-difluorophenyl)amino)azetidin-1-yl)-2-oxoethyl)-8-oxo-1,2,3,4,4a,5,8,10-octahydro-9H-pyrazino[1′,2′:4,5][1,4]oxazino[2,3-f]isoindol-9-yl)piperidine-2,6-dione] | 1 to 10 nM | 
10 | 10 to 100 nM | C[C@@H]1Cc2c([nH]c3ccccc23)[C@@H](c2c(F)cc(C3CCN(C(=O)CN4CCN5c6cc7c(cc6OC[C@@H]5C4)C(=O)N(C4CCC(=O)NC4=O)C7)CC3)cc2F)N1CC(F)F (stereo partly drawn) [Compound B119, 3-((S)-3-(2-(4-(4-((1R,3R)-2-(2,2-difluoroethyl)-3-methyl-2,3,4,9-tetrahydro-1H-pyrido[3,4-b]indol-1-yl)-3,5-difluorophenyl)piperidin-1-yl)-2-oxoethyl)-8-oxo-1,2,3,4,4a,5,8,10-octahydro-9H-pyrazino[1′,2′:4,5][1,4]oxazino[2,3-f]isoindol-9-yl)piperidine-2,6-dione] | < 1 nM | 
11 | < 10 nM | C[C@@H]1Cc2c([nH]c3ccccc23)[C@@H](c2cnc(N3CCC(CCN4CCN5c6cc7c(cc6OC[C@@H]5C4)C(=O)N(C4CCC(=O)NC4=O)C7)CC3)nc2)N1CC(F)F (stereo partly drawn) [Compound B121, 3-((S)-3-(2-(1-(5-((1R,3R)-2-(2,2-difluoroethyl)-3-methyl-2,3,4,9-tetrahydro-1H-pyrido[3,4-b]indol-1-yl)pyrimidin-2-yl)piperidin-4-yl)ethyl)-8-oxo-1,2,3,4,4a,5,8,10-octahydro-9H-pyrazino[1′,2′:4,5][1,4]oxazino[2,3-f]isoindol-9-yl)piperidine-2,6-dione] | 1 to 10 nM | 
12 | 10 to 100 nM | C[C@@H]1Cc2c([nH]c3ccccc23)[C@@H](c2cnc(N3CC[C@H](CCN4CCN5c6cc7c(cc6OC[C@@H]5C4)C(=O)N(C4CCC(=O)NC4=O)C7)C3)nc2)N1CC(F)F (stereo partly drawn) [Compound B122, 3-((S)-3-(2-((S)-1-(5-((1R,3R)-2-(2,2-difluoroethyl)-3-methyl-2,3,4,9-tetrahydro-1H-pyrido[3,4-b]indol-1-yl)pyrimidin-2-yl)pyrrolidin-3-yl)ethyl)-8-oxo-1,2,3,4,4a,5,8,10-octahydro-9H-pyrazino[1′,2′:4,5][1,4]oxazino[2,3-f]isoindol-9-yl)piperidine-2,6-dione] | 1 to 10 nM | 
